# Laboratory results from PubChem BioAssay AID328 (DTP/NCI, 2004).
# Where “and” joins values, the source holds several entries; their conditions need not be identical. Identical values can stand only once. Toxic doses and inconclusive results are not listed.
# Tested on: BDF1 mice, P388 leukemia ip, median survival T/C
# Experiment: NCI In Vivo Anticancer Drug Screen. Data for tumor model P388 Leukemia (intraperitoneal) in B6D2F1 (BDF1) mice
# Details: endpoint: median survival time, higher = longer survival
# Outline: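 Vehicle-dosed animals serve as the reference; survival of compound-dosed, tumour-implanted mice is divided by it.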
# [1] = dose: 50.0 mg/kg/injection, schedule: Q01DX009 (ip), vehicle: saline with Tween-80
# [2] = dose: 100.0 mg/kg/injection, schedule: Q01DX009 (ip), vehicle: saline with Tween-80
# [3] = dose: 100.0 mg/kg/injection, schedule: Q04DX003 (ip), vehicle: saline with Tween-80
# [4] = dose: 200.0 mg/kg/injection, schedule: Q04DX003 (ip), vehicle: saline with Tween-80
# [5] = dose: 400.0 mg/kg/injection, schedule: Q04DX003 (ip), vehicle: saline with Tween-80
# [6] = dose: 200.0 mg/kg/injection, schedule: Q01DX009 (ip), vehicle: saline with Tween-80
# [7] = dose: 400.0 mg/kg/injection, schedule: Q01DX009 (ip), vehicle: saline with Tween-80
# [8] = dose: 50.0 mg/kg/injection, schedule: Q04DX003 (ip), vehicle: saline with Tween-80
# [9] = dose: 100.0 mg/kg/injection, schedule: Q01DX009 (ip), vehicle: Klucel (hydroxypropylcellulose) (HPC)
# [10] = dose: 200.0 mg/kg/injection, schedule: Q01DX009 (ip), vehicle: Klucel (hydroxypropylcellulose) (HPC)
# [11] = dose: 400.0 mg/kg/injection, schedule: Q01DX009 (ip), vehicle: Klucel (hydroxypropylcellulose) (HPC)
# [12] = dose: 12.5 mg/kg/injection, schedule: Q01DX009 (ip), vehicle: saline with Tween-80
# [13] = dose: 25.0 mg/kg/injection, schedule: Q01DX009 (ip), vehicle: saline with Tween-80
# [14] = dose: 25.0 mg/kg/injection, schedule: Q04DX003 (ip), vehicle: Klucel (hydroxypropylcellulose) (HPC)
smiles,measurement,setting,value
NC(=O)C1(N2CCCCC2)CCN(CCCC(=O)c2ccc(F)cc2)CC1,T/C,"dose: 37.5 mg/kg/injection, schedule: Q01DX009 (ip), vehicle: Klucel (hydroxypropylcellulose) (HPC)",107 % of control
same,T/C,"dose: 150.0 mg/kg/injection, schedule: Q01DX009 (ip), vehicle: Klucel (hydroxypropylcellulose) (HPC)",117 % of control
Cc1nc2cnn(C)c2nc1C,T/C,"dose: 50.0 mg/kg/injection, schedule: Q04DX003 (ip), vehicle: saline",114 % of control
same,T/C,"dose: 100.0 mg/kg/injection, schedule: Q04DX003 (ip), vehicle: saline",113 % of control
same,T/C,"dose: 200.0 mg/kg/injection, schedule: Q04DX003 (ip), vehicle: saline",107 % of control
same,T/C,"dose: 400.0 mg/kg/injection, schedule: Q04DX003 (ip), vehicle: saline",88 % of control
O=[N+]([O-])c1ccc(SCc2ccccc2)c2nonc12,T/C,[1],150 % of control
same,T/C,[2],153 % of control
O=C(Nc1ccc(C2=NCCN2)cc1)Nc1cccc(NC(=O)Nc2ccc(C3=NCCN3)cc2)c1,T/C,"dose: 60.0 mg/kg/injection, schedule: Q01DX010 (ip), vehicle: saline",185 % of control and 190 % of control
same,T/C,"dose: 120.0 mg/kg/injection, schedule: Q01DX010 (ip), vehicle: saline",185 % of control
same,T/C,"dose: 240.0 mg/kg/injection, schedule: Q01DX010 (ip), vehicle: saline",245 % of control and 220 % of control
same,T/C,"dose: 480.0 mg/kg/injection, schedule: Q01DX010 (ip), vehicle: saline",120 % of control
Nc1nc2c(ncn2C2OC(CO)C(O)C2O)c(=O)[nH]1 (stereo not given),T/C,[3],157 % of control
COc1cc(O)c2c(c1)C(=O)c1cc(C)cc(O)c1C2=O,T/C,"dose: 2.5 mg/kg/injection, schedule: Q01DX009 (ip), vehicle: saline with Tween-80",100 % of control
same,T/C,"dose: 5.0 mg/kg/injection, schedule: Q01DX009 (ip), vehicle: saline with Tween-80",100 % of control
same,T/C,"dose: 10.0 mg/kg/injection, schedule: Q01DX009 (ip), vehicle: saline with Tween-80",95 % of control
same,T/C,"dose: 20.0 mg/kg/injection, schedule: Q01DX009 (ip), vehicle: saline with Tween-80",100 % of control
OC(Cc1nc(-c2ccccc2)c(-c2ccccc2)s1)(C(F)(F)F)C(F)(F)F,T/C,[3],100 % of control
same,T/C,[4],104 % of control
same,T/C,[5],100 % of control
O=C1Nc2ccc(Br)cc2C1=Nc1ccc(Cl)cc1,T/C,[1],101 % of control
same,T/C,[2],105 % of control
same,T/C,[6],118 % of control
C#CCOCC1CNC(=S)O1 (stereo not given),T/C,[2],100 % of control
same,T/C,[6],100 % of control
same,T/C,[7],100 % of control
ON=C(CSCc1ccccc1)CSCc1ccccc1,T/C,[8],99 % of control
same,T/C,[3],103 % of control
same,T/C,[4],88 % of control
same,T/C,[5],95 % of control
CC(=O)O[C@]1(C(C)=O)CC[C@H]2[C@@H]3C[C@H](C)C4=CC(=O)CC[C@]4(C)[C@H]3CC[C@@]21C,T/C,"dose: 50.0 mg/kg/injection, schedule: Q01DX009 (ip), vehicle: Klucel (hydroxypropylcellulose) (HPC)",103 % of control
same,T/C,[9],111 % of control
same,T/C,"dose: 100.0 mg/kg/injection, schedule: Q04DX003 (ip), vehicle: other",110 % of control
same,T/C,[10],94 % of control and 95 % of control
same,T/C,"dose: 200.0 mg/kg/injection, schedule: Q04DX003 (ip), vehicle: other",100 % of control
same,T/C,[11],87 % of control
same,T/C,"dose: 400.0 mg/kg/injection, schedule: Q04DX003 (ip), vehicle: other",115 % of control
COc1ccc(C(Cn2ccnc2)Sc2ccc(Cl)c(Cl)c2)cc1 (stereo not given),T/C,[12],105 % of control
same,T/C,[13],110 % of control
same,T/C,[1],120 % of control
same,T/C,[2],93 % of control and 119 % of control
CSc1ncnc2nc[nH]c12,T/C,"dose: 25.0 mg/kg/injection, schedule: Q01DX010 (ip), vehicle: saline",100 % of control
same,T/C,"dose: 50.0 mg/kg/injection, schedule: Q01DX010 (ip), vehicle: saline",100 % of control
same,T/C,"dose: 100.0 mg/kg/injection, schedule: Q01DX010 (ip), vehicle: saline",95 % of control and 100 % of control
same,T/C,"dose: 200.0 mg/kg/injection, schedule: Q01DX010 (ip), vehicle: saline",104 % of control and 105 % of control
NNC(=O)OC12CC3CC(CC(C3)C1)C2,T/C,"dose: 12.5 mg/kg/injection, schedule: Q04DX003 (ip), vehicle: Klucel (hydroxypropylcellulose) (HPC)",105 % of control
same,T/C,[14],105 % of control
same,T/C,"dose: 50.0 mg/kg/injection, schedule: Q04DX003 (ip), vehicle: Klucel (hydroxypropylcellulose) (HPC)",120 % of control
same,T/C,"dose: 63.75 mg/kg/injection, schedule: Q01DX001 (ip), vehicle: Klucel (hydroxypropylcellulose) (HPC)",100 % of control
same,T/C,"dose: 127.5 mg/kg/injection, schedule: Q01DX001 (ip), vehicle: Klucel (hydroxypropylcellulose) (HPC)",122 % of control
same,T/C,"dose: 255.0 mg/kg/injection, schedule: Q04DX003 (ip), vehicle: Klucel (hydroxypropylcellulose) (HPC)",90 % of control
C(=NCCc1ccccc1)c1ccccc1B1OB(c2ccccc2C=NCCc2ccccc2)OB(c2ccccc2C=NCCc2ccccc2)O1,T/C,[9],88 % of control
same,T/C,"dose: 100.0 mg/kg/injection, schedule: Q04DX003 (ip), vehicle: Klucel (hydroxypropylcellulose) (HPC)",100 % of control
same,T/C,[10],105 % of control
same,T/C,[11],88 % of control
same,T/C,"dose: 400.0 mg/kg/injection, schedule: Q04DX003 (ip), vehicle: Klucel (hydroxypropylcellulose) (HPC)",91 % of control
Cn1c2ccccc2c(=S)c2c(O)cc3c(c21)C=CC(C)(C)O3,T/C,"dose: 50.0 mg/kg/injection, schedule: Q01DX005 (ip), vehicle: saline with Tween-80",89 % of control
same,T/C,"dose: 100.0 mg/kg/injection, schedule: Q01DX005 (ip), vehicle: saline with Tween-80",90 % of control
same,T/C,"dose: 200.0 mg/kg/injection, schedule: Q01DX005 (ip), vehicle: saline with Tween-80",89 % of control
COc1cc(C=Nc2ccc(-c3nc(C)sc3C)cc2)ccc1N(CCCl)CCCl,T/C,"dose: 16.5 mg/kg/injection, schedule: Q04DX003 (ip), vehicle: Klucel (hydroxypropylcellulose) (HPC)",300 % of control
same,T/C,[14],231 % of control and 300 % of control
same,T/C,"dose: 37.5 mg/kg/injection, schedule: Q04DX003 (ip), vehicle: Klucel (hydroxypropylcellulose) (HPC)",300 % of control
CCCCCCCCCCCCCCCCCOc1ccc(I)cc1,T/C,"dose: 50.0 mg/kg/injection, schedule: Q01DX001 (ip), vehicle: saline with Tween-80",95 % of control
same,T/C,"dose: 100.0 mg/kg/injection, schedule: Q01DX001 (ip), vehicle: saline with Tween-80",100 % of control
same,T/C,"dose: 200.0 mg/kg/injection, schedule: Q01DX001 (ip), vehicle: saline with Tween-80",90 % of control
CCOC(CCC#N)c1ccccc1 (stereo not given),T/C,"dose: 266.0 mg/kg/injection, schedule: Q04DX003 (ip), vehicle: saline with Tween-80",114 % of control
same,T/C,[5],114 % of control
same,T/C,"dose: 600.0 mg/kg/injection, schedule: Q04DX003 (ip), vehicle: saline with Tween-80",119 % of control
Cc1ccccc1OS(=O)(=O)C(F)(F)C(F)(F)C(F)(F)C(F)(F)F,T/C,"dose: 50.0 mg/kg/injection, schedule: Q01DX009 (ip), vehicle: saline",100 % of control
same,T/C,"dose: 100.0 mg/kg/injection, schedule: Q01DX009 (ip), vehicle: saline",100 % of control
same,T/C,"dose: 200.0 mg/kg/injection, schedule: Q01DX009 (ip), vehicle: saline",106 % of control
COC1(OC)OC(c2ccccc2)=C(C#N)C(/C=C\c2ccccc2)C1(OC)OC (stereo not given),T/C,[12],100 % of control
same,T/C,[13],91 % of control
same,T/C,[1],90 % of control and 91 % of control
same,T/C,[6],106 % of control
O=C(/C=C/c1ccc(Br)cc1)c1ccc(Cl)cc1,T/C,[2],100 % of control
same,T/C,[3],100 % of control
same,T/C,[6],110 % of control
same,T/C,[4],100 % of control
same,T/C,[7],100 % of control
same,T/C,[5],90 % of control
CC(=O)Nc1ncnc2n[nH]c(C#N)c12,T/C,"dose: 12.5 mg/kg/injection, schedule: Q04DX003 (ip), vehicle: saline with Tween-80",117 % of control
same,T/C,"dose: 25.0 mg/kg/injection, schedule: Q04DX003 (ip), vehicle: saline with Tween-80",95 % of control
same,T/C,[8],104 % of control
same,T/C,[3],106 % of control
C/C(=N/N=C(N)N)c1ccc(NC(=O)Nc2ccc(/C(C)=N/N=C(N)N)cc2)cc1,T/C,"dose: 66.0 mg/kg/injection, schedule: Q04DX003 (ip), vehicle: saline with Tween-80",154 % of control
same,T/C,[2],90 % of control
same,T/C,[3],150 % of control
same,T/C,"dose: 150.0 mg/kg/injection, schedule: Q04DX003 (ip), vehicle: saline with Tween-80",159 % of control
CCCCCCCC(=O)CCCCC,T/C,[3],100 % of control
same,T/C,[4],95 % of control
same,T/C,[5],91 % of control
CC(=O)/C=C/c1ccccc1,T/C,[2],91 % of control and 109 % of control
same,T/C,[6],108 % of control and 118 % of control
same,T/C,[7],117 % of control
